Reference: patent publication US20210371440A1, “TLR7 AND / OR TLR8 AGONISTS” (GLAXOSMITHKLINE BIOLOGICALS SA, priority 2018, published 2021)

How the values were obtained:
[1] = target: T1, human TLR7 (Homo sapiens, UniProt Q9NYK1); experiment: HEK293 hTLR7 NFKB-SEAP reporter assay; assay type: cell-based; details: for EC50: HEK293 stably transfected with hTLR7, 24 h stimulation, aqueous formulations of choline salts (2% glycerol), SEAP readout, read-out: TLR7 ED50; for TLR7/8 ratio: ratio of TLR7 ED50 to TLR8 ED50, HEK293 reporter cells
T1 construct: host or cells: HEK293
T1 sequence (Q9NYK1 27-1049): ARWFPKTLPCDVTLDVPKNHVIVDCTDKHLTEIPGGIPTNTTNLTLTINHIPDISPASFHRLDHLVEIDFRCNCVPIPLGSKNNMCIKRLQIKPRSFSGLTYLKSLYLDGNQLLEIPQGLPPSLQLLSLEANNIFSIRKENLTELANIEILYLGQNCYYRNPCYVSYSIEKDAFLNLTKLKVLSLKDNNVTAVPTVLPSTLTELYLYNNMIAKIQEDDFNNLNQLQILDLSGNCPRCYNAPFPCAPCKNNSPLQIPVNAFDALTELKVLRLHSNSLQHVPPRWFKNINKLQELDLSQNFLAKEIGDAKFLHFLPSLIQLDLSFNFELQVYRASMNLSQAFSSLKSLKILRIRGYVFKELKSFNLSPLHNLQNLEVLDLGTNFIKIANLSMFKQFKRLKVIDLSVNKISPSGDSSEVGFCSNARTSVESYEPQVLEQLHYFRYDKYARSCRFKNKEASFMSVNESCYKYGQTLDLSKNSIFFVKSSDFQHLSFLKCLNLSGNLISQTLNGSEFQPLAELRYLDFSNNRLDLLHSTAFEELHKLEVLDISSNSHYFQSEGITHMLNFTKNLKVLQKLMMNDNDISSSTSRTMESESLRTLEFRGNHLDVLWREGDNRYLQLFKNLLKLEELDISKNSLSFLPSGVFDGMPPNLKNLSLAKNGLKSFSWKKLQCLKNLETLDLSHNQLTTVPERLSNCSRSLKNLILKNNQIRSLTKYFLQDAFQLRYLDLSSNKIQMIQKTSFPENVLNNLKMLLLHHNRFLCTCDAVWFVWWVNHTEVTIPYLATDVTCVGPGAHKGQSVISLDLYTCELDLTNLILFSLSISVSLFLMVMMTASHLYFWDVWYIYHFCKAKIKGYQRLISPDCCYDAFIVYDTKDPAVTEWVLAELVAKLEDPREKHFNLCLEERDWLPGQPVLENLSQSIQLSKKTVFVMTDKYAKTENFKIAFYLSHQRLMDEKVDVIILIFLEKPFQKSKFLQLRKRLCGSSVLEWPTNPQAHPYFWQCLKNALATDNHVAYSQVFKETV
Description: (§1) Determination of TLR agonist activity was performed using the HEK293 binding assay.
(§2) This assay measures TLR7 and TLR8 selectivity and potency of the compounds tested. HEK293 cells expressing human TLR7 or TLR8 and NFKB responsive Secreted Embryonic Alkaline Phosphatase (SEAP) reporter gene were obtained from InvitroGen (San Diego, Calif.). These cells were maintained in culture media of Dulbecco's Modified Eagle Medium (DMEM) (Invitrogen, Grand Island, N.Y.), 10% Fetal Bovine Serum (FBS) (Sigma, St. Louis, Mo.) and selection antibiotics (Invitrogen, and Invitrogen). HEK293 stably transfected with human TLR7 (hTLR7) or human TLR8 (hTLR8) were stimulated for 24 h with aqueous formulations of compounds and culture supernatants were analysed for NFKB activation using the colorimetric SEAP detection kit QuantBlue (InvitroGen).
(§3) Choline salts of the compounds were prepared in aqueous solution (2% glycerol) and sonicated to reduce particle size to 120-370 nm.

[2] = target: T2, human TLR8 (Homo sapiens, UniProt Q9NR97); experiment: HEK293 hTLR8 NFKB-SEAP reporter assay; assay type: cell-based; details: for EC50: HEK293 stably transfected with hTLR8, 24 h stimulation, aqueous formulations of choline salts (2% glycerol), SEAP readout, read-out: TLR8 ED50
T2 construct: host or cells: HEK293
T2 sequence (Q9NR97 27-1041): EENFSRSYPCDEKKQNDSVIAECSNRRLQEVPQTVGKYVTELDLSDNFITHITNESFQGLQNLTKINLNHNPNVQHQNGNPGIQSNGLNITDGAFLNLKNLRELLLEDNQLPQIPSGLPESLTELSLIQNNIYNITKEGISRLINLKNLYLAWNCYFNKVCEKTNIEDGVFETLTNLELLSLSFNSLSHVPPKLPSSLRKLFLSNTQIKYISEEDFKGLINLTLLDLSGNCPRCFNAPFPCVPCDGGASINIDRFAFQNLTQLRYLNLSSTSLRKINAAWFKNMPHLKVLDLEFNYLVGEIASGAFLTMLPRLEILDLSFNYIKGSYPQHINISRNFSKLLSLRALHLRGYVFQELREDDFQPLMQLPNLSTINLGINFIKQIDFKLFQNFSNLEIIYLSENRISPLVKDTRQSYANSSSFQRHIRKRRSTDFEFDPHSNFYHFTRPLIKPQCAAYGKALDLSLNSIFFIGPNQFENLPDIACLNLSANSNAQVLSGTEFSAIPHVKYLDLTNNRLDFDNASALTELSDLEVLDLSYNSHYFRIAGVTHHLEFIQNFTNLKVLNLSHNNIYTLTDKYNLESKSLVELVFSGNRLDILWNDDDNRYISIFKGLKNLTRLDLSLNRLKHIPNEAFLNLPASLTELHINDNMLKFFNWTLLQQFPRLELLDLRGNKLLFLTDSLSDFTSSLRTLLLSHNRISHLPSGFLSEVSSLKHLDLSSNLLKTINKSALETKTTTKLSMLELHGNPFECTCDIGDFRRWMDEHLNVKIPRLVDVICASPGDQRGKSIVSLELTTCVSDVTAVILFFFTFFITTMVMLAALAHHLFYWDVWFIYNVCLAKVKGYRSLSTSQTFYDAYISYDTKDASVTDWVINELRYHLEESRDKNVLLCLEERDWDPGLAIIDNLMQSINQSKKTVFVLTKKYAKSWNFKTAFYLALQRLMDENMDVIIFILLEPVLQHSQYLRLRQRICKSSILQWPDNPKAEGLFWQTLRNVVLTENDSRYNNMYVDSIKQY
Description: as §1, §2, §3

**Q.** What does the source list for `CCCCCCCC/C=C\CCCCCCCC(=O)OC[C@H](COP(=O)(O)OCCN1CCC(Cn2c(=O)[nH]c3c(N)nc(O[C@@H](C)CCC)nc32)CC1)OC(=O)CCCCCCC/C=C\CCCCCCCC` [Compound 1]?
**A.** hTLR7 activity compared with parent core oxoadenine compound ([1]; HEK293 hTLR7, result in words): slightly more potent; TLR7/TLR8 selectivity in words ([1]; HEK293 hTLR7 vs hTLR8, relative to similar prior art compounds): TLR7 bias; EC50 [1]: 320 nM; TLR7/8 ratio [1]: 0.7; hTLR8 activity compared with parent core oxoadenine compound ([2]; HEK293 hTLR8, result in words): slightly more potent; EC50 [2]: 470 nM

**Q.** What does the source list for `CC/C=C\CC(=O)OC[C@H](COP(=O)(O)OCCn1c(CCCC)nc2c(N)nc3ccccc3c21)OC(=O)C/C=C\CC` [reference compound]?
**A.** EC50 [1]: 34600 nM; TLR7/8 ratio [1]: 1.3; EC50 [2]: 26000 nM

**Q.** How did the EC50 [1] turn out when `CCCCc1nc2c(N)nc3ccccc3c2n1CCO` [reference compound] was run?
**A.** 580 nM

**Q.** What about the TLR7/8 ratio [1] of the same molecule?
**A.** 3.1

**Q.** And the EC50 [2]?
**A.** 190 nM

**Q.** `CCC[C@H](C)Oc1nc(N)c2[nH]c(=O)n(CC3CCN(CCO)CC3)c2n1` was tested. Which EC50 [1] did it give?
**A.** 340 nM

**Q.** What about the TLR7/8 ratio [1] of the same molecule?
**A.** 0.6

**Q.** What about the EC50 [2] of the same molecule?
**A.** 530 nM
